Reference: patent publication US9073858B2, “Methods of targeted drug development” (priority 2010, dated 2015)
Where two headings read alike, the source gives them in different places.

Experiments:
[1] = Stability on incubation with human liver microsomes (HLM); format: in vitro ADME; details: percentage left after incubation with human liver microsomes for 30 minutes
Procedure: (§1) Stability of hydroxyquinoline analogs were determined (see e.g., TABLE 18). MLM represents the percentage left after incubation with mouse liver microsomes for 30 minutes. HLM represents the percentage left after incubation with human liver microsomes for 30 minutes.
(§2) Stability of analogs having a benzaldehyde derived ring were determined (see e.g., TABLE 18). MLM represents the percentage left after incubation with mouse liver microsomes for 30 minutes. HLM represents the percentage left after incubation with human liver microsomes for 30 minutes.

[2] = Stability on incubation with mouse liver microsomes (MLM); format: in vitro ADME; details: percentage left after incubation with mouse liver microsomes for 30 minutes
Procedure: as §1, §2

[3] = tested on: epithelial carcinoma A431 cell line; experiment: MTT Cell Proliferation Assay, A431 cell line; format: cell-based; details: for MTT-72 h A431/MDBK (ratio) / MTT (10 Point follow-up) ratio: value in brackets; for MTT-72 h A431/MDBK (ratio): numerically MDBK value over A431 value; for MTT (10 Point follow-up) ratio: numerically MDBK over A431; for MTT-72 h % Max: maximal effect printed after the ratio
Outline: (§3)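 Cells plated overnight, then exposed 3 days at 37 °C, 5% CO2 to compound in growth medium with 0.5% FBS and 0.5% DMSO final (0.5% DMSO as control).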

EGFR = biological target: T1, EGFR (Homo sapiens, UniProt P00533); experiment: EGFR in-cell Western (ICW) screening protocol; format: cell-based; parameters: unit not given here; details: for ICW Screen: initial screen
T1 construct: endogenous in cells; host or cells: A431 cells (ATCC CRL-1555)
Outline: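 Serum-starved cells treated with compound 4 h at 37 °C, then stimulated with EGF (20 or 0 ng/ml solution added) in its continued presence. In-cell Western on fixed cells: phospho-EGFR (800 channel) normalised to total EGFR (700 channel), % inhibition calculated against EGF-stimulated and unstimulated no-compound wells.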

MDBK line = experiment: MTT Cell Proliferation Assay, MDBK line; format: cell-based, bovine; details: Bos taurus, MDBK
Outline: as §3

[4] = Homo sapiens, A-431, 72 h, 72 h, first value of A431/MDBK pair, read-out: MTT-72 h A431
[5] = 72 h, second value of A431/MDBK pair, read-out: MTT-72 h MDBK
[6] = Homo sapiens, A-431, 10 point follow-up, first value of pair, read-out: MTT (10 Point follow-up) A431
[7] = 10 point follow-up, second value of pair, read-out: MTT (10 Point follow-up) MDBK

T1 sequence (P00533 25-1210): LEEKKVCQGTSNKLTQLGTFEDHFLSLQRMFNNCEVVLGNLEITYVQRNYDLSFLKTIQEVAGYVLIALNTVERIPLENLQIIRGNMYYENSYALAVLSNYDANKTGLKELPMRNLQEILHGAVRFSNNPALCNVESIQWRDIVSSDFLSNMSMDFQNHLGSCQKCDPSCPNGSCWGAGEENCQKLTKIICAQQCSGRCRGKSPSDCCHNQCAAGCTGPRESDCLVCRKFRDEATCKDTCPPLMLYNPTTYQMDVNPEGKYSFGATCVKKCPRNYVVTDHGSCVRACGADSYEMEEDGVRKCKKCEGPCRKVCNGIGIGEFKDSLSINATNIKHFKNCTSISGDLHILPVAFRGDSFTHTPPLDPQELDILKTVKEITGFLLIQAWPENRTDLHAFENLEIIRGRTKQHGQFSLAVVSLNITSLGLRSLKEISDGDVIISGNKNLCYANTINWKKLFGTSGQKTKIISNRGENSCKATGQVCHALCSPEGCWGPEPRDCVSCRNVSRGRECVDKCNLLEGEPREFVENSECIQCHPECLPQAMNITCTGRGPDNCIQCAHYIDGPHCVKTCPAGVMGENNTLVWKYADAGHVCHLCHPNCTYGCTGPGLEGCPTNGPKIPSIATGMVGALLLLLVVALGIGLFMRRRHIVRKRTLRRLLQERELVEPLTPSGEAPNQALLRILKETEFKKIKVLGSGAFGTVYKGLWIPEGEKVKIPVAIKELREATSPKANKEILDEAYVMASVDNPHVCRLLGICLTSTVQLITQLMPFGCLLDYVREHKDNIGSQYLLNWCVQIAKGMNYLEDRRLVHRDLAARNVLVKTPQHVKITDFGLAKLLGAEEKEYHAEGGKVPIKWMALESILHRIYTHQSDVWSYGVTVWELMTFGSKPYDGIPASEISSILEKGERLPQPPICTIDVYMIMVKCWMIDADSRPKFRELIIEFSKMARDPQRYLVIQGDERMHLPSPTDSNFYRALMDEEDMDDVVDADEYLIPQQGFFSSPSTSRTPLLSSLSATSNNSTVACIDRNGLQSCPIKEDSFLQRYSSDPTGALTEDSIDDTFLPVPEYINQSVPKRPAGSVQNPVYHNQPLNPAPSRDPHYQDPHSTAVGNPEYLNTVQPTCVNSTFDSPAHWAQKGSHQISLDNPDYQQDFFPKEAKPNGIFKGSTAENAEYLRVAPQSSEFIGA

| HLM % Remaining@ 30 Min [1] [%] | MLM % Remaining@ 30 Min [2] [%] | IC50 [3, 4] [µM] | ICW Screen (EGFR) | ICW Re-Test (EGFR) | IC50 [3, 6] [µM] | IC50 ([3]; 72 h, first value of A431/MDBK pair, read-out: MTT-72 h A431) [µM] | SMILES | MTT-72 h A431/MDBK (ratio) ([3]; 72 h) | IC50 (MDBK line; [5]) [µM] | MTT (10 Point follow-up) ratio [3] | IC50 (MDBK line; [7]) [µM] | MTT-72 h % Max ([3]; 72 h) [%] |
| --- | --- | --- | --- | --- | --- | --- | --- | --- | --- | --- | --- | --- |
| 72 | 17 |  |  |  |  |  | Cc1cccc(NC(c2ccc(OC(F)(F)F)cc2)c2ccc3cccnc3c2O)n1 (stereo not shown) [AD4-12902] |  |  |  |  |  |
| 46 | 18 |  |  |  |  |  | Cc1cccc(NC(c2cccc(C(F)(F)F)c2)c2ccc3cccnc3c2O)n1 (stereo not shown) [AD4-12903] |  |  |  |  |  |
| 63 | 23 |  |  |  |  |  | Cc1cccc(NC(c2cccc(Cl)c2Cl)c2ccc3cccnc3c2O)n1 (stereo not shown) [AD4-12905] |  |  |  |  |  |
|  |  | 5.58 | 38.95 | 31.33 |  |  | CCOc1cc(C(NC(C)=O)c2cc([N+](=O)[O-])c3cccnc3c2O)ccc1O (stereo not shown) [compound 10951] | 0.97 | 5.44 |  |  |  |
|  |  | 10.5 | 49.39 | 43.94 |  |  | Cc1cccc(NC(c2ccc(C)s2)c2ccc3ccc(C)nc3c2O)n1 (stereo not shown) [compound 10952] | 0.74 | 7.77 |  |  |  |
|  |  | 5.42 | 30.86 | 41.04 |  |  | CCOc1ccc(C(Nc2ccccn2)c2cc(Cl)c3cccnc3c2O)cc1 (stereo not shown) [compound 10953] | 1.03 | 5.56 |  |  |  |
|  |  | 1.72 | 31.09 |  | 1.62 |  | Oc1c(C(Nc2ccccn2)c2ccccn2)cc(Cl)c2cccnc12 (stereo not shown) [compound 10954] | 1.33 | 2.29 | 1.26 | 2.17 |  |
|  |  | 5.5 | 37.33 | 53.58 |  |  | Oc1c(C(Nc2ccccn2)c2cccnc2)cc(Cl)c2cccnc12 (stereo not shown) [compound 10955] | 0.97 | 5.36 |  |  |  |
|  |  | 17.5 | 49.8 | 39.03 |  |  | Oc1c(C(Nc2ccccn2)c2ccsc2)ccc2cccnc12 (stereo not shown) [compound 10957] | 0.80 | 14.1 |  |  |  |
|  |  | 14.8 | 60.73 | 70.92 |  |  | Cc1ccc2ccc(C(Nc3ccccn3)c3sccc3C)c(O)c2n1 (stereo not shown) [compound 10958] | 0.65 | 9.67 |  |  |  |
|  |  | 0.98 | 42.18 | 87.34 | 0.96 |  | CCCC(=O)NC(c1ccc(O)c(OCC)c1)c1cc([N+](=O)[O-])c2cccnc2c1O (stereo not shown) [compound 10959] | 2.47 | 2.43 | 2.16 | 2.07 |  |
|  |  | 0.67 | 32.5 | 91.3 | 0.648 |  | CCC(=O)NC(c1cccs1)c1cc([N+](=O)[O-])c2cccnc2c1O (stereo not shown) [compound 10960] | 1.52 | 1.02 | 1.49 | 0.967 |  |
|  |  | 32.4 | 94.69 | 71.58 |  |  | Cc1ccc2ccc(C(Nc3ccccn3)c3ccc(C)s3)c(O)c2n1 (stereo not shown) [compound 10961] | 1.34 | 43.5 |  |  | 50 |
|  |  | 3.83 | 74.54 | 92.26 |  |  | CCN(CC)c1ccc(C(Nc2ccccn2)c2ccc3cccnc3c2O)cc1 (stereo not shown) [compound 10965] | 1.00 | 3.83 |  |  |  |
|  |  | 46 | 25.98 | 15.92 |  |  | Cc1ccc2ccc(C(Nc3ccccn3)c3cccnc3)c(O)c2n1 (stereo not shown) [compound 10967] | 0.67 | 31 |  |  |  |
|  |  | 11.1 | 27 |  |  |  | Cc1ccnc(NC(c2ccncc2)c2ccc3cccnc3c2O)c1 (stereo not shown) [compound 10968] | 0.71 | 7.84 |  |  |  |
|  |  |  | 30.17 | 73.15 | 0.51 |  | COc1ccc(C(NC(=O)c2cccnc2)c2cc(Cl)c3cccnc3c2O)cc1OC (stereo not shown) [compound 10969] |  |  | 1.02 | 0.52 |  |
|  |  | 4.19 | 50.44 | 44.13 |  |  | Cc1cccc(NC(c2ccncc2)c2ccc3cccnc3c2O)n1 (stereo not shown) [compound 10974] | 1.14 | 4.77 |  |  |  |

| HLM % Remaining@ 30 Min [1] [%] | MLM % Remaining@ 30 Min [2] [%] | IC50 [3, 4] [µM] | ICW Screen (EGFR) | ICW Re-Test (EGFR) | IC50 [3, 6] [µM] | IC50 ([3]; 72 h, first value of A431/MDBK pair, read-out: MTT-72 h A431) [µM] | SMILES | MTT-72 h A431/MDBK (ratio) ([3]; 72 h) | IC50 (MDBK line; [5]) [µM] | MTT (10 Point follow-up) ratio [3] | IC50 (MDBK line; [7]) [µM] | MTT-72 h % Max ([3]; 72 h) [%] |
| --- | --- | --- | --- | --- | --- | --- | --- | --- | --- | --- | --- | --- |
|  |  | 52.2 | 53.5 | 34.86 |  |  | Cc1cccc(NC(c2cccnc2)c2ccc3cccnc3c2O)n1 (stereo not shown) [compound 10975] | 0.68 | 35.6 |  |  |  |
|  |  | 25.1 | 33.22 | 21.78 |  |  | Cc1cccc(NC(c2cccc(C)n2)c2ccc3ccc(C)nc3c2O)n1 (stereo not shown) [compound 10976] | 0.78 | 19.7 |  |  |  |
|  |  |  | 27.62 |  |  | 11.4 | CCOc1ccc(NC(c2ccccn2)c2ccc3cccnc3c2O)cc1 (stereo not shown) [compound 11000] | 0.99 | 11.2 |  |  |  |
|  |  | 4.68 | 47.81 | 32.53 |  |  | COc1ccc(C)cc1NC(c1ccc(F)cc1)c1ccc2cccnc2c1O (stereo not shown) [compound 11014] | 0.92 | 4.32 |  |  |  |
|  |  | 5.07 | 64.21 | 57.97 |  |  | COC(=O)c1ccc(NC(c2cccs2)c2ccc3cccnc3c2O)cc1 (stereo not shown) [compound 11015] | 0.76 | 3.87 |  |  |  |
|  |  | 11.6 | 25.07 |  |  |  | CC(=O)Nc1ccc(NC(c2ccccn2)c2ccc3cccnc3c2O)cc1 (stereo not shown) [compound 11017] | 0.83 | 9.66 |  |  |  |
|  |  | 9.11 | 25.31 | 21.62 |  |  | Oc1c(C(Nc2ccccc2)c2ccccn2)ccc2cccnc12 (stereo not shown) [compound 11018] | 0.89 | 8.1 |  |  |  |
|  |  | 3.93 | 53.72 | 71.32 |  |  | Oc1c(C(Nc2cccc(Cl)c2)c2ccncc2)ccc2cccnc12 (stereo not shown) [compound 11042] | 1.06 | 3.72 |  |  |  |
|  |  | 6.35 | 32.48 | 18.32 |  |  | O=[N+]([O-])c1cccc(NC(c2ccco2)c2ccc3cccnc3c2O)c1 (stereo not shown) [compound 11056] | 0.94 | 5.94 |  |  |  |
|  |  | 7.99 | 44.4 | 73.29 |  |  | Oc1c(C(Nc2cccc(Cl)c2)c2cccnc2)ccc2cccnc12 (stereo not shown) [compound 11057] | 0.98 | 7.86 |  |  |  |
|  |  | 43.2 | 44.06 | 36.82 |  |  | Oc1c(C(Nc2ccc(OC(F)F)cc2)c2ccccn2)ccc2cccnc12 (stereo not shown) [compound 11072] | 0.49 | 21.1 |  |  | 12 |
|  |  | 7.39 | 44.31 | 39.06 |  |  | COc1ccccc1NC(c1cccnc1)c1ccc2cccnc2c1O (stereo not shown) [compound 11102] | 1.04 | 7.66 |  |  |  |
|  |  | 20.8 | 50.55 | 45.86 |  |  | COc1ccc(NC(c2ccccn2)c2ccc3cccnc3c2O)cc1 (stereo not shown) [compound 11103] | 1.75 | 36.4 |  |  |  |
|  |  | 5.46 | 48.25 | 17.88 | 4.72 |  | Oc1c(C(Nc2cccc(F)c2)c2ccccn2)ccc2cccnc12 (stereo not shown) [compound 11105] | 1.29 | 7.03 | 1.38 | 6.5 |  |
|  |  | 8.25 | 35.56 | 45.66 |  |  | Oc1ccccc1NC(c1cccnc1)c1ccc2cccnc2c1O (stereo not shown) [compound 11151] | 0.76 | 6.23 |  |  |  |
|  |  | 9 | 60.41 | 48.96 |  |  | COc1ccc(NC(c2cccnc2)c2ccc3cccnc3c2O)cc1 (stereo not shown) [compound 11152] | 0.92 | 8.24 |  |  |  |
|  |  | 13.1 | 28.24 | 20.64 |  |  | Oc1c(C(Nc2ccc(F)cc2)c2ccncc2)ccc2cccnc12 (stereo not shown) [compound 11153] | 0.43 | 5.58 |  |  |  |
|  |  | 5.59 | 40.32 | 22.02 |  |  | Fc1cccc(C(Nc2ccccn2)c2ccc3cccnc3c2)c1 (stereo not shown) [compound 11191] | 0.99 | 5.53 |  |  |  |
